Measured values as given in US7462600B2, “Macrolides” (Pfizer Inc, priority 2004, dated 2008).

Tests used:
Assay type in all cases: cell-based
[1] = test system: Streptococcus pyogenes 1079; test: MIC, microtiter broth dilution (NCCLS M100-S14), S. pyogenes 1079 (ermB); settings: S. pyogenes 1079 (ermB)
Procedure, shortened: (§1)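 Broth microdilution MICs in microtiter trays, run and interpreted per NCCLS M100-S14. Compounds were dissolved in DMSO as 40 mg/ml stocks.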

[2] = test system: Streptococcus pneumoniae 1016; test: MIC, microtiter broth dilution (NCCLS M100-S14), S. pneumoniae 1016 (susceptible); settings: S. pneumoniae 1016 (susceptible)
Procedure, shortened: as §1

[3] = test system: Streptococcus pneumoniae 1095; settings: S. pneumoniae 1095 (ermB); microtiter broth dilution
Procedure, shortened: as §1

[4] = test system: Streptococcus pneumoniae 1175; settings: S. pneumoniae 1175 (mefA); microtiter broth dilution
Procedure, shortened: as §1

[5] = test system: Haemophilus influenzae 1218; test: MIC, microtiter broth dilution (NCCLS M100-S14), H. influenzae 1218 (susceptible); settings: H. influenzae 1218 (susceptible)
Procedure, shortened: as §1

| SMILES | MIC S. pyogenes 1079 [1] | MIC S. pneumo. 1016 [2] | MIC S. pneumo. 1095 [3] | MIC S. pneumo. 1175 [4] | MIC H. influenzae 1218 [5] |
| --- | --- | --- | --- | --- | --- |
| CCC1OC(=O)C(C)C(=O)C(C)C(OC2OC(C)CC(N(C)C)C2O)C(C)(OC)CC(C)C(=O)C(C)C2N(CC3CCCN3C(=O)c3cc4ccccc4cn3)C(=O)OC12C.O=CO (centres unmarked) [10.09] | >64.00 µg/mL | <0.06 µg/mL | <0.06 µg/mL | 1 µg/mL | 2 µg/mL |
| CCC1OC(=O)C(C)C(=O)C(C)C(OC2OC(C)CC(N(C)C)C2O)C(C)(OC)CC(C)C(=O)C(C)C2N(CC3CCCN3C(=O)c3ccnc4ccccc34)C(=O)OC12C.O=CO (centres unmarked) [10.10] | >64.00 µg/mL | <0.06 µg/mL | <0.06 µg/mL | 1 µg/mL | 4 µg/mL |
| CCC1OC(=O)C(C)C(=O)C(C)C(OC2OC(C)CC(N(C)C)C2O)C(C)(OC)CC(C)C(=O)C(C)C2N(CC3CCCN3C(=O)c3cccc4cccnc34)C(=O)OC12C.O=CO (centres unmarked) [10.11] | >64.00 µg/mL | <0.06 µg/mL | 0.5 µg/mL | 4 µg/mL | 16 µg/mL |
| CCC1OC(=O)C(C)C(=O)C(C)C(OC2OC(C)CC(N(C)C)C2O)C(C)(OC)CC(C)C(=O)C(C)C2N(CC3CCCN3C(=O)c3ccc4nccnc4c3)C(=O)OC12C.O=CO (centres unmarked) [10.12] | 32 µg/mL | <0.06 µg/mL | <0.06 µg/mL | 0.12 µg/mL | 2 µg/mL |
| CCC1OC(=O)C(C)C(=O)C(C)C(OC2OC(C)CC(N(C)C)C2O)C(C)(OC)CC(C)C(=O)C(C)C2N(CC3CCCN3C(=O)c3ccc(-n4cccn4)nc3)C(=O)OC12C.O=CO (centres unmarked) [10.13] | >64.00 µg/mL | <0.06 µg/mL | 0.5 µg/mL | 0.5 µg/mL | 16 µg/mL |
| CCC1OC(=O)C(C)C(=O)C(C)C(OC2OC(C)CC(N(C)C)C2O)C(C)(OC)CC(C)C(=O)C(C)C2N(CC3CCCN3C(=O)c3ccc4cccnc4c3)C(=O)OC12C.O=CO (centres unmarked) [10.15] | >64.00 µg/mL | <0.06 µg/mL | <0.06 µg/mL | 0.25 µg/mL | 2 µg/mL |
| CCC1OC(=O)C(C)C(=O)C(C)C(OC2OC(C)CC(N(C)C)C2O)C(C)(OC)CC(C)C(=O)C(C)C2N(CC3CCCN3C(=O)c3ccc4cccnc4n3)C(=O)OC12C.O=CO (centres unmarked) [10.16] | >64.00 µg/mL | <0.06 µg/mL | <0.06 µg/mL | 0.25 µg/mL | 0.25 µg/mL |
| CCC1OC(=O)C(C)C(=O)C(C)C(OC2OC(C)CC(N(C)C)C2O)C(C)(OC)CC(C)C(=O)C(C)C2N(CC3CCCN3C(=O)c3nccc4ccccc34)C(=O)OC12C.O=CO (centres unmarked) [10.17] | >64.00 µg/mL | <0.06 µg/mL | <0.06 µg/mL | 0.12 µg/mL | 0.5 µg/mL |
| CCC1OC(=O)C(C)C(=O)C(C)C(OC2OC(C)CC(N(C)C)C2O)C(C)(OC)CC(C)C(=O)C(C)C2N(CC3CCCN3C(=O)c3cncc4ccccc34)C(=O)OC12C.O=CO (centres unmarked) [10.20] | 64 µg/mL | <0.06 µg/mL | <0.06 µg/mL | 0.12 µg/mL | 2 µg/mL |
| CCC1OC(=O)C(C)C(=O)C(C)C(OC2OC(C)CC(N(C)C)C2O)C(C)(OC)CC(C)C(=O)C(C)C2N(CC3CCCN3C(=O)c3cnc4ccccc4n3)C(=O)OC12C.O=CO (centres unmarked) [10.21] | >64.00 µg/mL | <0.06 µg/mL | <0.06 µg/mL | 0.12 µg/mL | 2 µg/mL |
